According to ChEMBL document CHEMBL1150225, “Cytotoxic cholestane glycosides from the bulbs of Ornithogalum saundersiae” (J Nat Prod, 2001):

Tests used:
Type in all cases: functional
SK-MEL-28 = experiment: Cytotoxicity against human SK-MEL-28 cells
OVCAR-5 = experiment: Cytotoxicity against human OVCAR5 cells
786-0 = experiment: Cytotoxicity against human 786-0 cells
A498 = experiment: Cytotoxicity against human A498 cells
CAKI-1 = experiment: Cytotoxicity against human Caki1 cells
UO-31 = experiment: Cytotoxicity against human UO31 cells
MCF7 = experiment: Cytotoxicity against human MCF7 cells
MDA-MB-231 = experiment: Cytotoxicity against human MDA-MB-231 cells
[1] = Cytotoxicity against human Hs 578T cells
MDA-MB-435 = experiment: Cytotoxicity against human MDA-MB-435 cells
BT-549 = experiment: Cytotoxicity against human BT549 cells
MOLT-4 = experiment: Cytotoxicity against human MOLT4 cells
[2] = Cytotoxicity against human […] cells
A549 = experiment: Cytotoxicity against human A549 cells
HT-29 = experiment: Cytotoxicity against human HT-29 cells
LOX IMVI = experiment: Cytotoxicity against human LOXIMVI cells
[3] = read-out: pLC50 (the source's name) (converted)

With `COc1ccc(C(=O)O[C@H]2[C@H](O[C@@H]3[C@@H](OC(C)=O)[C@H](O[C@H]4C[C@H]5[C@@H]6CC=C7C[C@@H](O)CC[C@]7(C)[C@H]6CC[C@]5(C)[C@@]4(O)[C@H](C)C(=O)CCC(C)C)OC[C@@H]3O)OC[C@@H](O)[C@@H]2O)cc1` the GI50 (SK-MEL-28) was 0.182 nM, the CC50 (SK-MEL-28; [3]) was 25.7 nM and the TGI (SK-MEL-28; read-out: pTGI (converted)) was 1.1 nM. It also gave a GI50 (OVCAR-5) of 50.1 nM, a CC50 (OVCAR-5; [3]) of 5890 nM and a TGI (OVCAR-5; read-out: pTGI (converted)) of 2000 nM. For the same compound, the GI50 (786-0) was 0.0617 nM, the CC50 (786-0; [3]) was 3470 nM and the TGI (786-0; read-out: pTGI (converted)) was 1200 nM. For the same compound, the GI50 (A498) was 0.24 nM, the CC50 (A498; [3]) was 141 nM and the TGI (A498; read-out: pTGI (converted)) was 2.19 nM. For the same compound, the GI50 (CAKI-1) was 1.7 nM, the CC50 (CAKI-1; [3]) was 871 nM and the TGI (CAKI-1; read-out: pTGI (converted)) was 49 nM. For the same compound, the GI50 (UO-31) was 0.617 nM, the CC50 (UO-31; [3]) was 30.2 nM and the TGI (UO-31; read-out: pTGI (converted)) was 1.41 nM. The GI50 (MCF7) was 0.813 nM, the CC50 (MCF7; [3]) was 3630 nM and the TGI (MCF7; read-out: pTGI (converted)) was 1200 nM. For the same compound, the GI50 (MDA-MB-231) was 19.1 nM, the CC50 (MDA-MB-231; [3]) was 5370 nM and the TGI (MDA-MB-231; read-out: pTGI (converted)) was 1290 nM. For the same compound, the GI50 [1] was 0.0537 nM, the CC50 [1, 3] was 2000 nM and the TGI ([1]; read-out: pTGI (converted)) was 0.741 nM. The GI50 (MDA-MB-435) was 0.575 nM, the CC50 (MDA-MB-435; [3]) was 407 nM and the TGI (MDA-MB-435; read-out: pTGI (converted)) was 8.91 nM. It also gave a GI50 (BT-549) of 1.82 nM, a CC50 (BT-549; [3]) of 4570 nM and a TGI (BT-549; read-out: pTGI (converted)) of 1700 nM. It also gave a GI50 (MOLT-4) of 0.0977 nM, a CC50 (MOLT-4; [3]) of 457 nM and a TGI (MOLT-4; read-out: pTGI (converted)) of 11 nM. For the same compound, the GI50 [2] was 0.038 nM, the CC50 [2, 3] was 2090 nM and the TGI ([2]; read-out: pTGI (converted)) was 0.219 nM. The GI50 (A549) was 0.457 nM, the CC50 (A549; [3]) was 8130 nM and the TGI (A549; read-out: pTGI (converted)) was 2090 nM. It also gave a GI50 (HT-29) of 0.363 nM, a CC50 (HT-29; [3]) of 3720 nM and a TGI (HT-29; read-out: pTGI (converted)) of 302 nM. It also gave a GI50 (LOX IMVI) of 0.251 nM, a CC50 (LOX IMVI; [3]) of 91.2 nM and a TGI (LOX IMVI; read-out: pTGI (converted)) of 2.29 nM.
